Key:
Experiment in all cases: KINOMEscan kinase binding assay (Eurofins/DiscoveRx), % Ctrl
Details in all cases: 1 μM
kinases [1] = target: T1, kinases (Homo sapiens, UniProt P10721, V559D)
T1 construct: purchased Eurofins/DiscoveRx; host or cells: E. coli BL21-derived host (T7 phage display) for most kinases; HEK-293 for the rest
How it was run: (§1)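 Competition binding: DNA- or phage-tagged kinases (T7 phage in E. coli BL21, or HEK-293-expressed) with immobilized biotinylated ligand beads and test compound, 1 h at room temperature. Bead-bound kinase eluted and quantified by qPCR; % Ctrl = (compound − positive control)/(negative control − positive control) ×100 at a single compound concentration.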

kinases [2] = target: T2, kinases (Homo sapiens, UniProt P00519, F317L)
T2 construct: purchased Eurofins/DiscoveRx; host or cells: E. coli BL21-derived host (T7 phage display) for most kinases; HEK-293 for the rest
How it was run: as §1

kinases [3] = target: T3, kinases (Homo sapiens, UniProt P00533, L858R/T790M)
T3 construct: purchased Eurofins/DiscoveRx; host or cells: E. coli BL21-derived host (T7 phage display) for most kinases; HEK-293 for the rest
How it was run: as §1

kinases [4] = target: T4, kinases (Homo sapiens, UniProt P00533, DEL746-750)
T4 construct: purchased Eurofins/DiscoveRx; host or cells: E. coli BL21-derived host (T7 phage display) for most kinases; HEK-293 for the rest
How it was run: as §1

kinases [5] = target: T5, kinases (Homo sapiens, UniProt P36888, D835Y)
T5 construct: purchased Eurofins/DiscoveRx; host or cells: E. coli BL21-derived host (T7 phage display) for most kinases; HEK-293 for the rest
T5 sequence (P36888 27-993 D835Y): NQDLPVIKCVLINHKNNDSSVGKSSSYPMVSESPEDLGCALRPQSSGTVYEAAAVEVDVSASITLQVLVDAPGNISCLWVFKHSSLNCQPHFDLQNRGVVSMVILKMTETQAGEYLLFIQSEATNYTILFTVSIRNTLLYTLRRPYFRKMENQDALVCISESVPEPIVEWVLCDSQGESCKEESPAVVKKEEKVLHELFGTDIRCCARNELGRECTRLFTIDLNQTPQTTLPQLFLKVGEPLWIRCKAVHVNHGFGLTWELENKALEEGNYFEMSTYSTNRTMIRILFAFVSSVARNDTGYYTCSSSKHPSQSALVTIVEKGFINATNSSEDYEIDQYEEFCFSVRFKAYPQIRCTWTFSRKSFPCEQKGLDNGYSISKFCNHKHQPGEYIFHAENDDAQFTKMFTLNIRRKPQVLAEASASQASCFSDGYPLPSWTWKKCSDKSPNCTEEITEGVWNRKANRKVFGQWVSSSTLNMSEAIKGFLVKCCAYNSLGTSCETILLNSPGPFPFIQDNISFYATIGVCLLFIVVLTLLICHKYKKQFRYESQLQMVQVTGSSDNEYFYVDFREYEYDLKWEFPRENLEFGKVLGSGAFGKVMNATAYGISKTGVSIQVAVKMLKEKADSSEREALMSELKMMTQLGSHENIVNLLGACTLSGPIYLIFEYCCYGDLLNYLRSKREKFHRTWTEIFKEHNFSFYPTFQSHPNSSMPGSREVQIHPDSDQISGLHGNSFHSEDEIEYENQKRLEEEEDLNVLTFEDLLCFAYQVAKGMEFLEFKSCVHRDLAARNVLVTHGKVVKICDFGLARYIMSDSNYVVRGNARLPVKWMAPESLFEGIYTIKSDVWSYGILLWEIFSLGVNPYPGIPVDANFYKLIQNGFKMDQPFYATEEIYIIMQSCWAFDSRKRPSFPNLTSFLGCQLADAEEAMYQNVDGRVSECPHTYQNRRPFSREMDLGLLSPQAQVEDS
How it was run: as §1

kinases [6] = target: T6, kinases (Homo sapiens, UniProt P17948)
T6 construct: purchased Eurofins/DiscoveRx; host or cells: E. coli BL21-derived host (T7 phage display) for most kinases; HEK-293 for the rest
How it was run: as §1

kinases [7] = target: T7, kinases (Homo sapiens, UniProt P10721, D816H)
T7 construct: purchased Eurofins/DiscoveRx; host or cells: E. coli BL21-derived host (T7 phage display) for most kinases; HEK-293 for the rest
How it was run: as §1

[8] = target ABL1(F317L)-nonphosphorylated
[9] = target ABL1(F317L)-phosphorylated

T1 sequence (P10721 26-976 V559D): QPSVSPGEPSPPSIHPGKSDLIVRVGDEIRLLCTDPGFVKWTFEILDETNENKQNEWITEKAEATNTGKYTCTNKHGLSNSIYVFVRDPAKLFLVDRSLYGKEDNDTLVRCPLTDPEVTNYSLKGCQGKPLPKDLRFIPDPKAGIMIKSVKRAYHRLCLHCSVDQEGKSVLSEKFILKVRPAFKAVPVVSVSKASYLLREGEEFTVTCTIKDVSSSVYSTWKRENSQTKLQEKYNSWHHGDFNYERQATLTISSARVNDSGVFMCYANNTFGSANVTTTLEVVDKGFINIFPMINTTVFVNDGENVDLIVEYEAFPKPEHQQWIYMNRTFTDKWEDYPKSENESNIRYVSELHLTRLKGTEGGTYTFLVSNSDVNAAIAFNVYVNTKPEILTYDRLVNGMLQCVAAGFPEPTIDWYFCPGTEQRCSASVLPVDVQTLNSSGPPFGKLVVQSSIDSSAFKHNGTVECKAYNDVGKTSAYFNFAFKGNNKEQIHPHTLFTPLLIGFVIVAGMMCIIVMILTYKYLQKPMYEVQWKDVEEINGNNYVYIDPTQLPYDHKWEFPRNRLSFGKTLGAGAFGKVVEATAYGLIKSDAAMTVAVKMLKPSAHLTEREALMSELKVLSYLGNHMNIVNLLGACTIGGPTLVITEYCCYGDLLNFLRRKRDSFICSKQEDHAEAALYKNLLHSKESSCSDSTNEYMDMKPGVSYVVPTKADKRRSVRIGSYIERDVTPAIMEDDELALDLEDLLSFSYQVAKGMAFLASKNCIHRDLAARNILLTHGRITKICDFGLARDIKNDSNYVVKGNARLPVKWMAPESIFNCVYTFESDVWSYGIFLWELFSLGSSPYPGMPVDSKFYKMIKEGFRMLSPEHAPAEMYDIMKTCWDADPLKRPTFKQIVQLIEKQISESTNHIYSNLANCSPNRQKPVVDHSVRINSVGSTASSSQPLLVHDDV
T6 sequence (P17948 27-1338): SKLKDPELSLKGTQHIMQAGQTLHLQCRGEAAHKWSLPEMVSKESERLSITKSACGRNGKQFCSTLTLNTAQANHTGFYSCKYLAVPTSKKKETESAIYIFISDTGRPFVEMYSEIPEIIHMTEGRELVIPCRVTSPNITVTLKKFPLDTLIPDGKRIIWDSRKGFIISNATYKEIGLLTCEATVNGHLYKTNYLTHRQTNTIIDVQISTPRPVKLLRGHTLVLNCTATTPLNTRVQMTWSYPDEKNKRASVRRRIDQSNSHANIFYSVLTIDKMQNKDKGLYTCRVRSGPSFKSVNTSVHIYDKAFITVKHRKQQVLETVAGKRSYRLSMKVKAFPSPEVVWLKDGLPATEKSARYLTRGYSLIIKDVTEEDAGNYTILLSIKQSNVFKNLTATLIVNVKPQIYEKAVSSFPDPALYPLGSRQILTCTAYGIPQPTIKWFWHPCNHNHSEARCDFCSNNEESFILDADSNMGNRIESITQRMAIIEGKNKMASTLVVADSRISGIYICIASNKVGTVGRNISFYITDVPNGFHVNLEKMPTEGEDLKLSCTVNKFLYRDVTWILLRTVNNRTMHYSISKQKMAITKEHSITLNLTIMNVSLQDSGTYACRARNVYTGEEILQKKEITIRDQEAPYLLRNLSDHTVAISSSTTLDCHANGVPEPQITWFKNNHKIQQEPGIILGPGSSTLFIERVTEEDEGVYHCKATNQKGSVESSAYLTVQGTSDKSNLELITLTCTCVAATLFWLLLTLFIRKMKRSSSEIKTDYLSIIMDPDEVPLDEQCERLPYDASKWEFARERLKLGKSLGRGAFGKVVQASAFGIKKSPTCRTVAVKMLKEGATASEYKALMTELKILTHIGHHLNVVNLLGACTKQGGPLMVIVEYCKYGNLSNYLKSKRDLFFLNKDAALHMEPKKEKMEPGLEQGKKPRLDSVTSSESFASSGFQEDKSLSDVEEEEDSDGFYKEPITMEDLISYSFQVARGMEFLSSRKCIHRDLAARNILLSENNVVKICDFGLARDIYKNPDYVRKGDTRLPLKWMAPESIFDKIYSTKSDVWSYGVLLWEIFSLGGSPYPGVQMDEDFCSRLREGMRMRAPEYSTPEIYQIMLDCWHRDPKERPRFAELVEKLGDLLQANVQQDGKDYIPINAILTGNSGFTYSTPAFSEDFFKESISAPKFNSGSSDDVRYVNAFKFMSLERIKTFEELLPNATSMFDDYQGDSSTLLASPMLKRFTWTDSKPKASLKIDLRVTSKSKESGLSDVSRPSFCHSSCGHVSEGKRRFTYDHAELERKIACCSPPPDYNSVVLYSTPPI
T2 sequence (P00519 whole entry F317L): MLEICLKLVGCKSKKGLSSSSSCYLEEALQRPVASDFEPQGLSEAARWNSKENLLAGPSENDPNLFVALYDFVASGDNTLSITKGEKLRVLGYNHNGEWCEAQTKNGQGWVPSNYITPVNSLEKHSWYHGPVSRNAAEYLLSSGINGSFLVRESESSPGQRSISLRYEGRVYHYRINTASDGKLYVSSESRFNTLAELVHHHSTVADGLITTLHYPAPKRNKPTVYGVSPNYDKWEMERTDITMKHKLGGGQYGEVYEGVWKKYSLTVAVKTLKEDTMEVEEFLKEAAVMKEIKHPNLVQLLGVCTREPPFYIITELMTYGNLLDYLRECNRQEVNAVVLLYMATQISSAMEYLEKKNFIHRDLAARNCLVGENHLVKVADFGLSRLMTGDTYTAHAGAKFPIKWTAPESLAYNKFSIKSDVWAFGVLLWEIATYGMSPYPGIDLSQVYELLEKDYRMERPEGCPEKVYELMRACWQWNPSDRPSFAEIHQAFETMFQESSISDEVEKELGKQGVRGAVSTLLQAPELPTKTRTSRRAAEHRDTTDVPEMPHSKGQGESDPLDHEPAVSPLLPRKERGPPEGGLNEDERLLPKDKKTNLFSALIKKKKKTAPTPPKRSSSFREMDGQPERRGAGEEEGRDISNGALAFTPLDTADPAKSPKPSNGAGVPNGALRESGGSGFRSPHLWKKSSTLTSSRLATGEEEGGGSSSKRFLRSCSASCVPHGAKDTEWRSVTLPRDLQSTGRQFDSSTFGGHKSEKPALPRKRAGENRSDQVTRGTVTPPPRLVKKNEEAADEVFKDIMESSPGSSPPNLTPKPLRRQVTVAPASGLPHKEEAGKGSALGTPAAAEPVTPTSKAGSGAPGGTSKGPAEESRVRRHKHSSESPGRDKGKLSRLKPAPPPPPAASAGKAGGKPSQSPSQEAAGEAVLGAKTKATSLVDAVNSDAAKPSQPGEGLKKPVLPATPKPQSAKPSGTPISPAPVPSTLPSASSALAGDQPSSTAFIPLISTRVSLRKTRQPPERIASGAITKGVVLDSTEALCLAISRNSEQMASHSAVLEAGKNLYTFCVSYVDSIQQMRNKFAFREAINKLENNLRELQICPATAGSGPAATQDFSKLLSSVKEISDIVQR
T7 sequence (P10721 26-976 D816H): as the sequence (P10721 26-976 V559D) above, with D534V, D791H counted along it

| Compound | % Ctrl, KIT(V559D) (kinases [1]; KIT(V559D)) | % Ctrl, ABL1(F317L)-nonphosphorylated (kinases [2]; ABL1(F317L)-nonphosphorylated) | % Ctrl, ABL1(F317L)-phosphorylated (kinases [2]; ABL1(F317L)-phosphorylated) | % Ctrl, EGFR(L858R, T790M) (kinases [3]; EGFR(L858R, T790M)) | % Ctrl, EGFR(E746-A750del) (kinases [4]; EGFR(E746-A750del)) | % Ctrl, FLT3(D835Y) (kinases [5]; FLT3(D835Y)) | % Ctrl, FLT1 (kinases [6]; FLT1) | % Ctrl, KIT(D816H) (kinases [7]; KIT(D816H)) | % Ctrl, KIT(V559D) (kinases [1]; target KIT(V559D)) | % Ctrl, ABL1(F317L)-nonphosphorylated (kinases [2]; [8]) | % Ctrl, ABL1(F317L)-phosphorylated (kinases [2]; [9]) | % Ctrl, EGFR(L858R, T790M) (kinases [3]; target EGFR(L858R, T790M)) | % Ctrl, EGFR(E746-A750del) (kinases [4]; target EGFR(E746-A750del)) | % Ctrl, FLT3(D835Y) (kinases [5]; target FLT3(D835Y)) | % Ctrl, FLT1 (kinases [6]; target FLT1) | % Ctrl, KIT(D816H) (kinases [7]; target KIT(D816H)) |
| --- | --- | --- | --- | --- | --- | --- | --- | --- | --- | --- | --- | --- | --- | --- | --- | --- |
| Cc1cc2c([nH]1)/C=C1\C(=O)Nc3ccc(cc31)CN(C)C(=O)COCCNC2=O [Ex.111, [17a(18)Z]-2,11-dimethyl-6,7,11,12-tetrahydro-1H-13,15-(ethanediylidene)dipyrrolo[3,2-f:3′,4′-i][1,4,14]oxadiazacyclohexadecine-4,10,17(5H,9H,16H)-trione] | 97 % Ctrl | 87 % Ctrl | 100 % Ctrl | 97 % Ctrl | 92 % Ctrl | 9.1 % Ctrl | 46 % Ctrl | 7 % Ctrl | – | – | – | – | – | – | – | – |
| Cc1cc2c([nH]1)/C=C1\C(=O)Nc3cc(Cl)c(cc31)OCCOCCN(C)C2=O [Ex. 131, [16a(17)Z]-19-chloro-2,5-dimethyl-6,7,9,10-tetrahydro-1H-12,14-(ethanediylidene)dipyrrolo[3,2-i:3′,4′-l][1,4,7]dioxazacyclopentadecine-4,16(5H,15H)-dione] | 0.15 % Ctrl | 0 % Ctrl | 1.3 % Ctrl | 35 % Ctrl | 11 % Ctrl | 2.3 % Ctrl | 4 % Ctrl | 6.2 % Ctrl | – | – | – | – | – | – | – | – |
| CN1CCSCCOc2cc3c(cc2Cl)NC(=O)/C3=C\c2[nH]ccc2C1=O [Ex. 153] | – | – | – | – | – | – | – | – | 0.3 % Ctrl | 4.3 % Ctrl | 18 % Ctrl | 79 % Ctrl | 56 % Ctrl | 1.7 % Ctrl | 3.5 % Ctrl | 27 % Ctrl |
| CN1CCOCCOc2cc3c(cc2Cl)NC(=O)/C3=C\c2[nH]ccc2C1=O [Ex. 143, [16a(17)Z]-19-chloro-2,5-dimethyl-6,7,9,10-tetrahydro-1H-12,14-(ethanediylidene)dipyrrolo[3,2-i:3′,4′-l][1,4,7]oxathiazacyclopentadecine-4,16(5H,15H)-dione] | – | – | – | – | – | – | – | – | 5.4 % Ctrl | 17 % Ctrl | 17 % Ctrl | 75 % Ctrl | 65 % Ctrl | 3.1 % Ctrl | 11 % Ctrl | 59 % Ctrl |
| Cc1cc2c([nH]1)/C=C1\C(=O)Nc3ccc(cc31)-c1c(C)n[nH]c1CNCCN(C)C2=O [Ex. 127, [3a(4)Z]-6,9,16-trimethyl-9,10,11,12,13,14-hexahydro-1,17-(ethanediylidene)pyrazolo[4,3-m]dipyrrolo[3,2-f:3′,4′-i][1,4]diazacyclopentadecine-3,8(2H,5H)-dione] | 82 % Ctrl | 4.1 % Ctrl | 0.8 % Ctrl | 2.3 % Ctrl | 13 % Ctrl | 1.4 % Ctrl | 54 % Ctrl | 60 % Ctrl | – | – | – | – | – | – | – | – |
| Cc1cc2c([nH]1)/C=C1\C(=O)Nc3ccc(cc31)-c1ccnn1CCNCCNC2=O [Ex. 43, [19a(20)Z]-2-methyl-5,6,7,8,9,10-hexahydro-15,17-(ethanediylidene)pyrazolo[1,5-g]dipyrrolo[3,4-k:2′,3′-n][1,4,7]triazacyclohexadecine-4,19(1H,18H)-dione] | 100 % Ctrl | 63 % Ctrl | 90 % Ctrl | 98 % Ctrl | 69 % Ctrl | 86 % Ctrl | 96 % Ctrl | 65 % Ctrl | – | – | – | – | – | – | – | – |
| Cc1cc2c([nH]1)/C=C1\C(=O)Nc3ccc(cc31)-c1cnn(C)c1CNCCN(C)C2=O [Ex. 125, [3a(4)Z]-6,9,14-trimethyl-9,10,11,12,13,14-hexahydro-1,17-(ethanediylidene)pyrazolo[4,3-m]dipyrrolo[3,2-f:3′,4′-i][1,4]diazacyclopentadecine-3,8(2H,5H)-dione] | 35 % Ctrl | 0 % Ctrl | 0.55 % Ctrl | 1.2 % Ctrl | 20 % Ctrl | 0 % Ctrl | 11 % Ctrl | 0.65 % Ctrl | – | – | – | – | – | – | – | – |
| Cc1cc2c([nH]1)/C=C1\C(=O)Nc3ccc(cc31)-c1ccnn1CCOCCNC2=O [Ex.39, [19a(20)Z]-2-methyl-6,7,9,10-tetrahydro-1H-15,17-(ethanediylidene)pyrazolo[1,5-d]dipyrrolo[3,4-h:2′,3′-k][1,4,14]oxadiazacyclohexadecine-4,19(5H,18H)-dione] | 99 % Ctrl | 98 % Ctrl | 60 % Ctrl | 90 % Ctrl | 69 % Ctrl | 96 % Ctrl | 95 % Ctrl | 83 % Ctrl | – | – | – | – | – | – | – | – |
| Cc1cc2c([nH]1)/C=C1\C(=O)Nc3ccc(nc31)-c1ccccc1OCCCNC2=O [Ex.22, [3a(4)Z]-6-methyl-9,10,11,12-tetrahydro-1,18-(ethanediylidene)dipyrrolo[3,2-g:3′,4′-j][1,5,12]benzoxadiazacyclopentadecine-3,8(2H,5H)-dione] | 96 % Ctrl | 82 % Ctrl | 100 % Ctrl | 97 % Ctrl | 97 % Ctrl | 93 % Ctrl | 100 % Ctrl | 100 % Ctrl | – | – | – | – | – | – | – | – |
| Cc1cc2c([nH]1)/C=C1\C(=O)Nc3ccc(cc31)O[C@@H](C)COCCN(C)C2=O [Ex. 92, [10S,16a(17)Z]-2,5,10-trimethyl-6,7,9,10-tetrahydro-1H-12,14-(ethanediylidene)dipyrrolo[3,2-i:3′,4′-l][1,4,7]dioxazacyclopentadecine-4,16(5H,15H)-dione] | 91 % Ctrl | 6.5 % Ctrl | 76 % Ctrl | 100 % Ctrl | 100 % Ctrl | 28 % Ctrl | 90 % Ctrl | 87 % Ctrl | – | – | – | – | – | – | – | – |
